# Tested on: yeast genes (level of expressed mRNA)
# Experiment: DNA chip analysis of expressed mRNA of yeast genes after 2 h culture with a toxic chemical substance
# Format: cell-based, Saccharomyces cerevisiae S288C
# Protocol: Yeast (Saccharomyces cerevtisiae S288C (α SUC2mal mel gap2 CUP1)) were cultured at 25° C. on YPD medium (yeast extract 1%, polypepton 2%, glucose 2%). One of toxic chemical substances was added to the cell at logarithmic growth phase, and the cell was further cultured for two hours. Cell was cultured without any chemical substance in the same condition, and was used as control. Concentrations of the chemical substances were defined to inhibit the growth of the yeast but not lead to death.
# After the completion of cultivation, the culture was centrifuged to collect the cells. To the cells, sodium acetate buffer (50 mM sodium acetate, 10 mM EDTA, 1% SDS) was added, and the mixture was shaken at 65° C. for five minutes, followed by returning to room temperature, and obtaining the supernatant, which procedure was repeated two times. To the supernatant, ½ amount of a solution of phenol/chloroform was added, and the mixture was centrifuged to give a supernatant, which was added with an equal amount of chloroform, and the mixture was centrifuged to give a supernatant. To the supernatant, an equal amount of isopropanol containing 0.3 M sodium acetate was added, and the mixture was allowed to stand at room temperature for 30 minutes, after which the mixture was centrifuged to give a sediment of the whole RNAs. Seventy % ethanol was added to the sediment, and the mixture was again centrifuged to give a sediment, which was then dried and dissolved in water. mRNA was isolated from the whole RNAs as followings. In view of the fact that a poly A chain is attached to the 3′ terminus of mRNA, a polynucleotide having a poly T structure which was immobilized on the surface of latex beads was used to trap the mRNA, and then the mRNA was washed and eluted with spine column (Oligotex-dT30<Super>mRNA Purification Kit, Takara). Reverse transcription of the mRNA was conducted with a reverse transcriptase (Super Script II Reverse Transcriptase; catalogue No. 18064-014, GibcoBRL) using fluorescence-labeled nucleotides to give cDNAs that were introduced with Cy3-dUTP or Cy5-dUTP during the reverse transcription.
# The labeled cDNAs were dissolved in TE buffer (10 mM Tris-HCl/1 mM EDTA, pH8.0), and the solution was dropped on the DNA chip containing the whole genes of yeast (DNA Chip Research Inc. Japan) so that the cDNAs were hybridized on the DNA chip at 65° C. for over 12 hours. The fluoresces intensity of the DNA chip was read with a scanner, and the ratio relative to the fluorescence intensity resulting from the absence of chemical substance was estimated as the following, which is shown in Tables 1 to 9: [formula]
# In the Tables, “Intensity” indicated in the rightmost column is a value of the level of expressed mRNA of each gene in control cells as divided by the average level of the expressions of the whole genes.
substance,measurement,setting,value
manganese ethylenebis(dithiocarbamate) [(8)],The level of expressed mRNA in the presence of chemical substance/,"yeast gene YFL010C, ratio to control without chemical substance, 2 h culture",1.0
same,The level of expressed mRNA in the presence of chemical substance/,"yeast gene YFL024C, ratio to control without chemical substance, 2 h culture",0.9
same,The level of expressed mRNA in the presence of chemical substance/The level of expressed mRNA in the absence of chemical substance,yeast gene YFL028C,1.5
same,The level of expressed mRNA in the presence of chemical substance/,"yeast gene YFL032W, ratio to control without chemical substance, 2 h culture",0.4
same,The level of expressed mRNA in the presence of chemical substance/The level of expressed mRNA in the absence of chemical substance,yeast gene YFL043C,1.0
same,The level of expressed mRNA in the presence of chemical substance/in the absence of chemical substance,yeast gene YGL035C,1.3
same,The level of expressed mRNA in the presence of chemical substance/,"yeast gene YGL037C, ratio to control without chemical substance, 2 h culture",1.2
same,The level of expressed mRNA in the presence of chemical substance/,"yeast gene YGL047W, ratio to control without chemical substance, 2 h culture",1.1
same,The level of expressed mRNA in the presence of chemical substance/,"yeast gene YGL053W, ratio to control without chemical substance, 2 h culture",1.2
same,The level of expressed mRNA in the presence of chemical substance/,"yeast gene YGL121C, ratio to control without chemical substance, 2 h culture",3.0
same,The level of expressed mRNA in the presence of chemical substance/The level of expressed mRNA in the absence of chemical substance,yeast gene YGL158W,1.3
same,The level of expressed mRNA in the presence of chemical substance/,"yeast gene YGL199C, ratio to control without chemical substance, 2 h culture",0.7
same,The level of expressed mRNA in the presence of chemical substance/The level of expressed mRNA in the absence of chemical substance,yeast gene YGL229C,0.7
same,The level of expressed mRNA in the presence of chemical substance/,"yeast gene YGR101W, ratio to control without chemical substance, 2 h culture",0.8
same,The level of expressed mRNA in the presence of chemical substance/,"yeast gene YGR110W, ratio to control without chemical substance, 2 h culture",1.5
same,The level of expressed mRNA in the presence of chemical substance/,"yeast gene YGR130C, ratio to control without chemical substance, 2 h culture",0.9
same,The level of expressed mRNA in the presence of chemical substance/The level of expressed mRNA in the absence of chemical substance,yeast gene YGR136W,1.3
same,The level of expressed mRNA in the presence of chemical substance/,"yeast gene YGR154C, ratio to control without chemical substance, 2 h culture",1.7
same,The level of expressed mRNA in the presence of chemical substance/The level of expressed mRNA in the absence of chemical substance,yeast gene YGR189C,1.0
same,The level of expressed mRNA in the presence of chemical substance/The level of expressed mRNA in the absence of chemical substance,yeast gene YGR213C,2.0
same,The level of expressed mRNA in the presence of chemical substance/,"yeast gene YGR221C, ratio to control without chemical substance, 2 h culture",1.1
same,The level of expressed mRNA in the presence of chemical substance/The level of expressed mRNA in the absence of chemical substance,yeast gene YGR257C,1.0
same,The level of expressed mRNA in the presence of chemical substance/in the absence of chemical substance,yeast gene YGR287C,1.3
same,The level of expressed mRNA in the presence of chemical substance/The level of expressed mRNA in the absence of chemical substance,yeast gene YHR004C,0.9
same,The level of expressed mRNA in the presence of chemical substance/The level of expressed mRNA in the absence of chemical substance,yeast gene YHR071W,1.7
same,The level of expressed mRNA in the presence of chemical substance/,"yeast gene YHR138C, ratio to control without chemical substance, 2 h culture",1.4
same,The level of expressed mRNA in the presence of chemical substance/The level of expressed mRNA in the absence of chemical substance,yeast gene YHR139C,1.3
same,The level of expressed mRNA in the presence of chemical substance/The level of expressed mRNA in the absence of chemical substance,yeast gene YHR142W,1.3
same,The level of expressed mRNA in the presence of chemical substance/,"yeast gene YHR199C, ratio to control without chemical substance, 2 h culture",1.0
same,The level of expressed mRNA in the presence of chemical substance/,"yeast gene YIL023C, ratio to control without chemical",0.7
same,The level of expressed mRNA in the presence of chemical substance/,"yeast gene YIL041W, ratio to control without chemical substance, 2 h culture",0.9
same,The level of expressed mRNA in the presence of chemical substance/,"yeast gene YIL087C, ratio to control without chemical substance, 2 h culture",1.1
same,The level of expressed mRNA in the presence of chemical substance/The level of expressed mRNA in the absence of chemical substance,yeast gene YIL123W,0.6
same,The level of expressed mRNA in the presence of chemical substance/The level of expressed mRNA in the absence of chemical substance,yeast gene YIL140W,0.7
same,The level of expressed mRNA in the presence of chemical substance/,"yeast gene YJL057C, ratio to control without chemical substance, 2 h culture",1.5
same,The level of expressed mRNA in the presence of chemical substance/,"yeast gene YJL066C, ratio to control without chemical substance, 2 h culture",0.8
same,The level of expressed mRNA in the presence of chemical substance/in the absence of chemical substance,yeast gene YJL070C,1.1
same,The level of expressed mRNA in the presence of chemical substance/The level of expressed mRNA in the absence of chemical substance,yeast gene YJL073W,1.0
same,The level of expressed mRNA in the presence of chemical substance/,"yeast gene YJL082W, ratio to control without chemical substance, 2 h culture",0.9
same,The level of expressed mRNA in the presence of chemical substance/The level of expressed mRNA in the absence of chemical substance,yeast gene YJL089W,1.1
same,The level of expressed mRNA in the presence of chemical substance/The level of expressed mRNA in the absence of chemical substance,yeast gene YJL116C,1.8
same,The level of expressed mRNA in the presence of chemical substance/,"yeast gene YJL151C, ratio to control without chemical substance, 2 h culture",0.8
same,The level of expressed mRNA in the presence of chemical substance/,"yeast gene YJL152W, ratio to control without chemical substance, 2 h culture",0.7
same,The level of expressed mRNA in the presence of chemical substance/,"yeast gene YJL161W, ratio to control without chemical substance, 2 h culture",1.4
same,The level of expressed mRNA in the presence of chemical substance/in the absence of chemical substance,yeast gene YJL167W,1.5
same,The level of expressed mRNA in the presence of chemical substance/,"yeast gene YJL171C, ratio to control without chemical substance, 2 h culture",0.9
same,The level of expressed mRNA in the presence of chemical substance/in the absence of chemical substance,yeast gene YJL216C,1.9
same,The level of expressed mRNA in the presence of chemical substance/The level of expressed mRNA in the absence of chemical substance,yeast gene YJR004C,0.4
same,The level of expressed mRNA in the presence of chemical substance/,"yeast gene YJR008W, ratio to control without chemical substance, 2 h culture",1.1
same,The level of expressed mRNA in the presence of chemical substance/,"yeast gene YJR054W, ratio to control without chemical",1.6
same,The level of expressed mRNA in the presence of chemical substance/The level of expressed mRNA in the absence of chemical substance,yeast gene YJR086W,1.1
same,The level of expressed mRNA in the presence of chemical substance/The level of expressed mRNA in the absence of chemical substance,yeast gene YKL008C,1.2
same,The level of expressed mRNA in the presence of chemical substance/The level of expressed mRNA in the absence of chemical substance,yeast gene YKL013C,0.9
same,The level of expressed mRNA in the presence of chemical substance/The level of expressed mRNA in the absence of chemical substance,yeast gene YKL039W,0.8
same,The level of expressed mRNA in the presence of chemical substance/The level of expressed mRNA in the absence of chemical substance,yeast gene YKL041W,1.6
same,The level of expressed mRNA in the presence of chemical substance/,"yeast gene YKL071W, ratio to control without chemical substance, 2 h culture",24.7

# Source: patent publication US20050112573A1, “Method of detecting toxic substance” (priority 2001, published 2005)
